Results reported in patent US20080153896A1, “Polymorphic Forms of an HMG-CoA Reductase Inhibitor and Uses Thereof” (priority 2006, published 2008).

Assay: Stability (integrity) testing of amorphous and polymorphic form under storage conditions, RP-HPLC
Format: physicochemical
Set-up: key to Impurity RRT 0.738 / Impurity RRT 0.949 / Impurity RRT 1.050 / Impurity RRT 1.550 / Impurity RRT 0.136 / Impurity RRT 0.720 / Impurity RRT 0.706 / Impurity RRT 1.18 / Impurity RRT 1.826: % of total UV absorption (HPLC peak area)
Procedure: The integrity of the different forms of the (3R, 5R)-7-[2-(4-fluorophenyl)-5-isopropyl-3-phenyl-4-[(4-hydroxymethylphenylamino)carbonyl]-pyrrol-1-yl]-3,5-dihydroxy-heptanoic acid, hemi calcium salt, was tested under different atmospheric conditions to determine the stability of the amorphous and polymorphic form of the drug in various storage environments. Reversed Phase-HPLC (RP-HPLC) was used to separate (3R, 5R)-7-[2-(4-fluorophenyl)-5-isopropyl-3-phenyl-4-[(4-hydroxymethylphenylamino)carbonyl]-pyrrol-1-yl]-3,5-dihydroxy-heptanoic acid, hemi calcium salt, from smaller molecules representing breakdown products as well as oxidized drug. The relative amount of the drug was reported as a percent of total absorption by UV. The total peak area of all UV absorption impurities was used to define total impurity of the drug. Impurities are defined by their relative retention time (RRT) compared to native drug. Samples were injected onto a C18 column using standard temperature, gradient and run-time conditions.
The results of this integrity testing for the amorphous form of (3R, 5R)-7-[2-(4-fluorophenyl)-5-isopropyl-3-phenyl-4-[(4-hydroxymethylphenylamino)carbonyl]-pyrrol-1-yl]-3,5-dihydroxy-heptanoic acid, hemi calcium salt, is shown in Table 5.
Three separate batches of polymorphic Form I of (3R, 5R)-7-[2-(4-fluorophenyl)-5-isopropyl-3-phenyl-4-[(4-hydroxymethylphenylamino)carbonyl]-pyrrol-1-yl]-3,5-dihydroxy-heptanoic acid, hemi calcium salt, were prepared and tested under the same atmospheric conditions described for the amorphous form.

[1] = 25° C./60% RH 3M, hemi calcium salt
[2] = 25° C./60% RH 9M, hemi calcium salt

- Description (5° C. 1M): White
- Impurity RRT 1.094 (5° C. 1M): 0.157
- Impurity RRT 1.437 (5° C. 1M): 0.155
- Impurity RRT 1.593 (5° C. 1M): 0.082
- Impurity RRT 1.694 (5° C. 1M): 0.069
- Assay (5° C. 1M, hemi calcium salt): 98.31 % W/W
- Highest Impurity (5° C. 1M, hemi calcium salt): 0.360
- Impurity RRT 0.935 (5° C. 1M, hemi calcium salt): 0.360
- Impurity RRT 1.045 (5° C. 1M, hemi calcium salt): 0.357
- Impurity RRT 1.64 (5° C. 1M, hemi calcium salt): 0.057
- Total Impurity (5° C. 1M, hemi calcium salt): 1.237
- Water (5° C. 1M, hemi calcium salt): 4.81 % W/W
- Description (5° C. 2M): White
- Impurity RRT 1.094 (5° C. 2M): 0.161
- Impurity RRT 1.180 (5° C. 2M): 0.048
- Impurity RRT 1.437 (5° C. 2M): 0.164
- Impurity RRT 1.593 (5° C. 2M): 0.085
- Impurity RRT 1.694 (5° C. 2M): 0.067
- Assay (5° C. 2M, hemi calcium salt): 98.25 % W/W
- Highest Impurity (5° C. 2M, hemi calcium salt): 0.380
- Impurity RRT 0.935 (5° C. 2M, hemi calcium salt): 0.380
- Impurity RRT 1.045 (5° C. 2M, hemi calcium salt): 0.375
- Impurity RRT 1.64 (5° C. 2M, hemi calcium salt): 0.051
- Total Impurity (5° C. 2M, hemi calcium salt): 1.33
- Water (5° C. 2M, hemi calcium salt): 4.61 % W/W
- Description (5° C. 3M): White
- Impurity RRT 1.094 (5° C. 3M): 0.149
- Impurity RRT 1.437 (5° C. 3M): 0.169
- Impurity RRT 1.593 (5° C. 3M): 0.077
- Impurity RRT 1.694 (5° C. 3M): 0.056
- Total Impurity (5° C. 3M): 1.35
- Assay (5° C. 3M, hemi calcium salt): 98.20 % W/W
- Highest Impurity (5° C. 3M, hemi calcium salt): 0.469
- Impurity RRT 0.935 (5° C. 3M, hemi calcium salt): 0.385
- Impurity RRT 1.045 (5° C. 3M, hemi calcium salt): 0.469
- Impurity RRT 1.64 (5° C. 3M, hemi calcium salt): 0.047
- Water (5° C. 3M, hemi calcium salt): 4.97 % W/W
- Description (5° C. 4M): White
- Impurity RRT 1.094 (5° C. 4M): 0.169
- Impurity RRT 1.437 (5° C. 4M): 0.132
- Impurity RRT 1.593 (5° C. 4M): 0.071
- Impurity RRT 1.694 (5° C. 4M): 0.071
- Assay (5° C. 4M, hemi calcium salt): 98.24 % W/W
- Highest Impurity (5° C. 4M, hemi calcium salt): 0.419
- Impurity RRT 0.935 (5° C. 4M, hemi calcium salt): 0.419
- Impurity RRT 1.045 (5° C. 4M, hemi calcium salt): 0.409
- Impurity RRT 1.640 (5° C. 4M, hemi calcium salt): 0.067
- Total Impurity (5° C. 4M, hemi calcium salt): 1.338
- Water (5° C. 4M, hemi calcium salt): 4.43 % W/W
- Description (5° C. 5M): White
- Impurity RRT 1.094 (5° C. 5M): 0.105
- Impurity RRT 1.437 (5° C. 5M): 0.155
- Impurity RRT 1.550 (5° C. 5M): 0.587
- Impurity RRT 1.694 (5° C. 5M): 0.045
- Assay (5° C. 5M, hemi calcium salt): 98.29 % W/W
- Highest Impurity (5° C. 5M, hemi calcium salt): 0.587
- Impurity RRT 0.935 (5° C. 5M, hemi calcium salt): 0.289
- Impurity RRT 1.045 (5° C. 5M, hemi calcium salt): 0.312
- Impurity RRT 1.640 (5° C. 5M, hemi calcium salt): 0.024
- Total Impurity (5° C. 5M, hemi calcium salt): 1.517
- Water (5° C. 5M, hemi calcium salt): 5.55 % W/W
- Description (5° C. 6M): White
- Impurity RRT 1.094 (5° C. 6M): 0.153
- Impurity RRT 1.437 (5° C. 6M): 0.170
- Impurity RRT 1.593 (5° C. 6M): 0.081
- Impurity RRT 1.694 (5° C. 6M): 0.070
- Water (5° C. 6M): 5.04 % W/W
- Assay (5° C. 6M, hemi calcium salt): 98.02 % W/W
- Highest Impurity (5° C. 6M, hemi calcium salt): 0.423
- Impurity RRT 0.935 (5° C. 6M, hemi calcium salt): 0.423
- Impurity RRT 1.045 (5° C. 6M, hemi calcium salt): 0.390
- Impurity RRT 1.640 (5° C. 6M, hemi calcium salt): 0.053
- Total Impurity (5° C. 6M, hemi calcium salt): 1.340
- Description (5° C. 9M): White
- Impurity RRT 1.094 (5° C. 9M): 0.161
- Impurity RRT 1.180 (5° C. 9M): 0.055
- Impurity RRT 1.437 (5° C. 9M): 0.170
- Impurity RRT 1.593 (5° C. 9M): 0.065
- Impurity RRT 1.694 (5° C. 9M): 0.064
- Assay (5° C. 9M, hemi calcium salt): 98.12 % W/W
- Highest Impurity (5° C. 9M, hemi calcium salt): 0.407
- Impurity RRT 0.935 (5° C. 9M, hemi calcium salt): 0.407
- Impurity RRT 1.045 (5° C. 9M, hemi calcium salt): 0.407
- Impurity RRT 1.640 (5° C. 9M, hemi calcium salt): 0.033
- Total Impurity (5° C. 9M, hemi calcium salt): 1.362
- Water (5° C. 9M, hemi calcium salt): 5.07 % W/W
- Description (5° C. 12M): White
- Impurity RRT 1.094 (5° C. 12M): 0.158
- Impurity RRT 1.180 (5° C. 12M): 0.022
- Impurity RRT 1.437 (5° C. 12M): 0.152
- Impurity RRT 1.593 (5° C. 12M): 0.086
- Impurity RRT 1.694 (5° C. 12M): 0.068
- Assay (5° C. 12M, hemi calcium salt): 97.78 % W/W
- Highest Impurity (5° C. 12M, hemi calcium salt): 0.432
- Impurity RRT 0.935 (5° C. 12M, hemi calcium salt): 0.417
- Impurity RRT 1.045 (5° C. 12M, hemi calcium salt): 0.432
- Impurity RRT 1.640 (5° C. 12M, hemi calcium salt): 0.051
- Total Impurity (5° C. 12M, hemi calcium salt): 1.413
- Water (5° C. 12M, hemi calcium salt): 5.08 % W/W
- Assay (25° C./50% RH 6M): 98.01 % W/W
- Description (25° C./50% RH 6M): White
- Highest Impurity (25° C./50% RH 6M): 0.390
- Impurity RRT 0.935 (25° C./50% RH 6M): 0.390
- Impurity RRT 1.045 (25° C./50% RH 6M): 0.370
- Impurity RRT 1.094 (25° C./50% RH 6M): 0.140
- Impurity RRT 1.437 (25° C./50% RH 6M): 0.117
- Impurity RRT 1.593 (25° C./50% RH 6M): 0.073
- Impurity RRT 1.640 (25° C./50% RH 6M): 0.048
- Impurity RRT 1.694 (25° C./50% RH 6M): 0.074
- Total Impurity (25° C./50% RH 6M): 1.212
- Water (25° C./50% RH 6M): 5.41 % W/W
- Description (25° C./60% RH 3M): White
- Impurity RRT 1.094 (25° C./60% RH 3M): 0.153
- Impurity RRT 1.437 (25° C./60% RH 3M): 0.155
- Impurity RRT 1.593 (25° C./60% RH 3M): 0.079
- Impurity RRT 1.694 (25° C./60% RH 3M): 0.064
- Assay [1]: 98.21 % W/W
- Highest Impurity [1]: 0.388
- Impurity RRT 0.935 [1]: 0.368
- Impurity RRT 1.045 [1]: 0.382
- Impurity RRT 1.64 [1]: 0.047
- Total Impurity [1]: 1.270
- Water [1]: 4.03 % W/W
- Description (25° C./60% RH 9M): White
- Impurity RRT 1.094 (25° C./60% RH 9M): 0.141
- Impurity RRT 1.437 (25° C./60% RH 9M): 0.162
- Impurity RRT 1.593 (25° C./60% RH 9M): 0.076
- Impurity RRT 1.694 (25° C./60% RH 9M): 0.068
- Assay [2]: 98.09 % W/W
- Highest Impurity [2]: 0.376
- Impurity RRT 0.935 [2]: 0.374
- Impurity RRT 1.045 [2]: 0.376
- Impurity RRT 1.640 [2]: 0.046
- Total Impurity [2]: 1.243
- Water [2]: 5.04 % W/W
- Description (25° C./60% RH 12M): White
- Impurity RRT 1.094 (25° C./60% RH 12M): 0.153
- Impurity RRT 1.180 (25° C./60% RH 12M): 0.019
- Impurity RRT 1.437 (25° C./60% RH 12M): 0.145
- Impurity RRT 1.593 (25° C./60% RH 12M): 0.083
- Impurity RRT 1.694 (25° C./60% RH 12M): 0.059
- Assay (25° C./60% RH 12M, hemi calcium salt): 97.95 % W/W
Structure (SMILES): CC(C)c1c(C(=O)Nc2ccc(CO)cc2)c(-c2ccccc2)c(-c2ccc(F)cc2)n1CC[C@@H](O)C[C@@H](O)CC(=O)[O-].CC(C)c1c(C(=O)Nc2ccc(CO)cc2)c(-c2ccccc2)c(-c2ccc(F)cc2)n1CC[C@@H](O)C[C@@H](O)CC(=O)[O-].[Ca+2] [PP00405, (3R, 5R)-7-[2-(4-fluorophenyl)-5-isopropyl-3-phenyl-4-[(4-hydroxymethylphenylamino)carbonyl]-pyrrol-1-yl]-3,5-dihydroxy-heptanoic acid, hemi calcium salt]
